Results on 43 compounds are retold here after patent publication US8697694B2, “Substituted pyridine and pyrimidine derivatives and their use in treating viral infections” (priority 2008, dated 2014).

Molecules are shown by their SMILES. Bounds are passed on as bounds.

In one assay the test system is HCV replicon cells. In words: Cell-based HCV replicon assay (replicon RNA level by real time PCR, Taqman). The note with it: Hepatitis C virus, 72 h, HCV replicon cells, harvested day 3, replicon RNA by real time PCR; given as number; read-out: EC90 (μM) range. Summed up:
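HCV replicon cells treated 3 days with 10 serial 2-fold compound dilutions (top 25 μM to 1 μM; 0.5% DMSO, 10% FBS). Replicon RNA quantified by multiplex Taqman RT-PCR (NS5B amplicon, GAPDH control); EC50 and EC90 = concentrations giving ΔCT of 1 and 3.2 over baseline.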
For orientation: EC90 means the concentration at which the effect reaches the 90% level. `CCOc1cc2cc(-c3c(C)nc(N[C@H](C)C4CC4)nc3N[C@@H]3C[C@H](CO)[C@@H](O)[C@H]3O)oc2c(C)n1` [Example 41]: the 90% effect concentration (EC90) is 0.2 µM.

As for `CCC(CC)Oc1cc2cc(-c3c(C)nc(NCC4CC4)nc3N[C@@H]3C[C@H](CO)[C@@H](O)[C@H]3O)oc2c(C)n1` [Example 44], the concentration for an effect of 90% (EC90) was greater than 25 µM.

The assay is the same for the next values; noted with them: Hepatitis C virus, 72 h, HCV replicon cells, harvested day 3, replicon RNA by real time PCR; reported as range class; read-out: EC90 (μM) range.
With `OC[C@H]1C[C@@H](Nc2nc(NCCCF)nc(Cl)c2-c2nc3ccccc3s2)[C@H](O)[C@@H]1O` [Example 126], the EC90 is less than 0.5 µM.

For `OC[C@H]1C[C@@H](Nc2ncnc(Cl)c2-c2nc3ccccc3s2)[C@H](O)[C@@H]1O` [Example 118], the 90% effect concentration (EC90) was greater than 5 µM.

Regarding `OC[C@H]1C[C@@H](Nc2nc(NCCC(F)(F)F)nc(Cl)c2-c2nc3ccccc3s2)[C@H](O)[C@@H]1O` [Example 217], the EC90 is less than 0.5 µM.

Consider `CC1(C)O[C@@H]2[C@@H](CO)C[C@@H](Nc3nc(N)nc(Cl)c3-c3nc4ccccc4s3)[C@@H]2O1` [Example 184], for which the EC90 is less than 0.5 µM.

For `CC(=O)OCCNc1nc(Cl)c(-c2nc3ccccc3s2)c(N[C@@H]2C[C@H](CO)[C@@H](O)[C@H]2O)n1` [Example 209], the concentration for an effect of 90% (EC90) is less than 0.5 µM.

For the compound `CCN(C)c1nc(Cl)c(-c2nc3ccccc3s2)c(N[C@@H]2C[C@H](CO)[C@@H](O)[C@H]2O)n1` [Example 318], the EC90 was less than 0.5 µM.

Consider `CCc1nccc2cc(-c3c(Cl)nc(N)nc3N[C@@H]3C[C@H](CO)[C@@H](O)[C@H]3O)oc12` [Example 308], for which the concentration for an effect of 90% (EC90) was less than 0.5 µM.

Regarding `COc1cc2cc(-c3c(Cl)nc(N)nc3N[C@@H]3C[C@H](CO)[C@@H](O)[C@H]3O)oc2c(C)n1` [Example 14], the concentration for an effect of 90% (EC90) is less than 0.5 µM.

The assay is the same for the next values; noted with them: Hepatitis C virus, 72 h, HCV replicon cells, harvested on day 3, replicon RNA by real time PCR; calculated EC90 reported as range class; read-out: EC90 (μM) range.
In the case of `Cc1nc(NCCNC(=O)NC(C)(C)C)nc(N[C@@H]2C[C@H](CO)[C@@H](O)[C@H]2O)c1-c1nc2ccccc2s1` [Example 250], the EC90 was 0.5 to 5 µM.

With `CCCCCNc1nc(Cl)c(-c2cc3cc(CC)ncc3o2)c(N[C@@H]2C[C@H](CO)[C@@H](O)[C@H]2O)n1` [Example 511], the EC90 is less than 0.5 µM.

Regarding `OC[C@H]1C[C@@H](Nc2nc(NCCc3ccccc3)nc(Cl)c2-c2nc3ccccc3s2)[C@H](O)[C@@H]1O` [Example 444], the concentration for an effect of 90% (EC90) was less than 0.5 µM.

In the case of `Cc1nc(NCc2cccs2)nc(N[C@@H]2C[C@H](C)[C@H]3OC4(CCCCC4)O[C@H]32)c1-c1nc2ccccc2s1` [Example 335], the EC90 is greater than 5 µM.

For the compound `Cc1nc(NCc2cccn2C)nc(N[C@@H]2C[C@H](CO)[C@H]3OC(C)(C)O[C@H]32)c1-c1nc2ccccc2s1` [Example 468], the EC90 was less than 0.5 µM.

In the case of `OC[C@H]1C[C@@H](Nc2nc(NCC3CC3)nc(Cl)c2-c2nc3ccccc3s2)[C@H](O)[C@@H]1O` [Example 504], the concentration for an effect of 90% (EC90) was less than 0.5 µM.

With `Cc1nc(NCCNC(=O)OCc2ccccc2)nc(N[C@@H]2C[C@H](CO)[C@H]3OC(C)(C)O[C@H]32)c1-c1nc2ccccc2s1` [Example 253], the EC90 was 0.5 to 5 µM.

For `CC(C)(C)CNc1nc(Cl)c(-c2nc3ccccc3s2)c(N[C@@H]2C[C@H](CO)[C@@H](O)[C@H]2O)n1` [Example 436], the EC90 was less than 0.5 µM.

In the case of `Cc1nc(NCCN2CCOCC2)nc(N[C@@H]2C[C@H](CO)[C@@H](O)[C@H]2O)c1-c1nc2ccccc2s1` [Example 252], the EC90 is less than 0.5 µM.

The same assay, now with this note: Hepatitis C virus, 72 h, HCV replicon cells, replicon RNA level by real time PCR (Taqman), day 3; calculated EC90; read-out: EC90 (μM) range.
Turning to `Cc1nc(NCC(F)(F)F)nc(N[C@@H]2C[C@H](CO)[C@H]3OC(C)(C)O[C@H]32)c1-c1nc2cnccc2o1` [Example 2002], the EC90 is greater than 5 µM.

The same assay, now with this note: Hepatitis C virus, 72 h, HCV replicon cells, replicon RNA level by real time PCR (Taqman), harvested on day 3; calculated EC90 reported as range class; read-out: EC90 (μM) range.
For the compound `Cc1nc(NCC(C)(C)C)nc(N[C@@H]2C[C@H](CO)[C@@H](O)[C@H]2O)c1-c1nc2cnccc2s1` [Example 536], the 90% effect concentration (EC90) is less than 0.5 µM.

As to `COc1cc(CNc2nc(C)c(-c3nc4ccccc4s3)c(N[C@@H]3C[C@H](CO)[C@@H](O)C3)n2)cc(OC)c1` [Example 1241], the concentration for an effect of 90% (EC90) was less than 0.5 µM.

Consider `Cc1ccccc1Nc1nc(C)c(-c2nc3ccccc3s2)c(N[C@@H]2C[C@H](CO)[C@@H](O)[C@H]2O)n1` [Example 1047], for which the EC90 is 0.5 to 5 µM.

As to `Cc1nc(NCc2cccs2)nc(N[C@@H]2CC[C@@H](O)[C@H]2O)c1-c1nc2cnccc2s1` [Example 1214], the concentration for an effect of 90% (EC90) was less than 0.5 µM.

Take `COCc1cc2cc(-c3c(C)nc(NCc4ccco4)nc3N[C@@H]3C[C@H](CO)[C@@H](O)[C@H]3O)oc2cn1` [Example 1108]: the 90% effect concentration (EC90) is less than 0.5 µM.

In the case of `Cc1ccc(C2(Nc3nc(C)c(-c4nc5cnccc5s4)c(N[C@@H]4C[C@H](CO)[C@@H](O)[C@H]4O)n3)CC2)cc1` [Example 1315], the 90% effect concentration (EC90) is 0.5 to 5 µM.

Consider `Cc1nc(NCC(C)(F)F)nc(N[C@@H]2C[C@H](CO)[C@@H](O)[C@H]2O)c1-c1nc2ccccc2s1` [Example 1242], for which the EC90 was 0.5 to 5 µM.

For `CCOCCNc1nc(C)c(-c2nc3cc(OC(F)F)c(OC(F)F)cc3s2)c(N[C@@H]2C[C@H](CO)[C@H]3OC(C)(C)O[C@H]32)n1` [Example 1001], the EC90 was greater than 5 µM.

As for `Cc1nc(NCC(F)(F)F)nc(N[C@@H]2C[C@H](COC(=O)[C@@H](N)C(C)C)[C@@H](O)[C@H]2O)c1-c1nc2ccccc2s1` [Example 1133], the EC90 was 0.5 to 5 µM.

Consider `Cc1nc(NCc2cc(F)cc(F)c2)nc(N[C@@H]2C[C@H](CO)[C@@H](O)[C@H]2O)c1-c1nc2cnccc2s1` [Example 1309], for which the EC90 is less than 0.5 µM.

Still in this assay, the particulars now being: Hepatitis C virus, 72 h, HCV replicon cells, replicon RNA level by real time PCR, harvested day 3; read-out: EC90 (μM) range.
With `Cc1nc(O)nc(N[C@@H]2C[C@H](CO)[C@@H](O)[C@H]2O)c1-c1nc2ccccc2s1` [Example 1605], the EC90 was greater than 5 µM.

As for `Cc1ccc([C@@H](C)Nc2nc(C)c(-c3nc4cnccc4s3)c(N)n2)cc1` [Example 1511], the EC90 is less than 0.5 µM.

For the compound `COc1ccc(CCNc2nc(C)c(-c3nc4cnccc4s3)c(N[C@@H]3CC[C@@H](O)[C@@]3(C)O)n2)cc1Cl` [Example 1818], the EC90 lay in the range of 0.5 to 5 µM.

Take `COc1cc(CNc2nc(C)c(-c3nc4ccccc4s3)c(N[C@H]3C[C@@H](CO)[C@H](O)[C@@H]3O)n2)cc(OC)c1` [Example 1501]: the EC90 fell in the range of 0.5 to 5 µM.

Turning to `Cc1nc(NCC2CC2)nc(NC[C@@H]2CC2(CO)CO)c1-c1nc2ccccc2s1` [Example 1617], the EC90 was greater than 5 µM.

On to `Cc1nc(NCC(F)(F)F)nc(N[C@@H]2C[C@H](CNS(=O)(=O)C(F)(F)F)[C@@H](O)[C@H]2O)c1-c1nc2ccccc2s1` [Example 1523], for which the concentration for an effect of 90% (EC90) fell in the range of 0.5 to 5 µM.

For the compound `Cc1nc(NCC(F)(F)F)nc(N[C@@H]2C[C@H](CO)N(C(=O)OC(C)(C)C)C2)c1-c1nc2ccccc2s1` [Example 1348], the EC90 is greater than 5 µM.

Turning to `Cc1nc(N[C@H](C)c2ccc(OC(F)(F)F)cc2)nc(N[C@@H]2C[C@@H](C(C)O)[C@@H](O)[C@H]2O)c1-c1nc2cnccc2s1` (stereo partly shown) [Example 1652], the EC90 was less than 0.5 µM.

Turning to `Cc1nc(NCC(F)(F)F)nc(NC2CCN(C(=O)OC(C)(C)C)C2)c1-c1nc2ccccc2s1` (stereo not shown) [Example 1515], the concentration for an effect of 90% (EC90) was 0.5 to 5 µM.

`Cc1nc(C(N)=O)nc(N[C@@H]2C[C@H](CO)[C@H]3OC(C)(C)O[C@H]32)c1-c1nc2ccccc2s1` [Example 1902]: the concentration for an effect of 90% (EC90) is greater than 5 µM.

Turning to `Cc1nc(NCC(F)(F)F)nc(N[C@@H]2C[C@H](CO)[C@@H](O)[C@@]2(C)O)c1-c1nc2cnccc2s1` [Example 1709], the EC90 was less than 0.5 µM.

Regarding `Cc1nc(N[C@H](C)C(F)(F)F)nc(N[C@@H]2C[C@H](CO)[C@@H](O)[C@H]2O)c1-c1nc2ccccc2s1` [Example 1623], the 90% effect concentration (EC90) lay within 0.5 to 5 µM.

As for `CCN(C[C@H]1C[C@@H](Nc2nc(NCC(F)(F)F)nc(C)c2-c2nc3ccccc3s2)[C@H](O)[C@@H]1O)C(=O)OC` [Example 1391], the EC90 was less than 0.5 µM.
